The text below walks through data of publication PMC8536575, “Acute effects of the imidacloprid metabolite desnitro-imidacloprid on human nACh receptors relevant for neuronal signaling” (Archives of Toxicology, 2021).

Format in all cases: cell-based, human
Experiment [1] relates to nAChRs on SH-SY5Y cells. Put plainly: [Ca2+]i measurements in SH-SY5Y cells (agonist effect). Here is the method: SH-SY5Y cells were cultured as previously described (Attoff et al. [2016]). Briefly, they were cultured in MEM supplemented with 10% fetal bovine serum (Gibco, 31330095), 1% non-essential amino acid solution (Gibco, 11140035), 2 mM L-glutamine (Gibco, 25030024), 100 μg/ml streptomycin, and 100 U/ml penicillin (Gibco, 15140122). For maintenance culture, SH-SY5Y cells were seeded at 27,000 cells/cm^2 in 75 cm^2 cell culture flasks (Corning). The cells were passaged once a week using TrypLE Express Enzyme (Gibco). SH-SY5Y cells were differentiated into a neuronal-like phenotype by exchanging the maintenance medium with differentiation medium consisting of DMEM/F12 (Gibco, 31330095) supplemented with 1 mM L-glutamine (Gibco, 25030024), 100 μg streptomycin/mL, 100 U penicillin/mL, 1 × N2-supplement (Gibco, 17502048) and 1 µM all-trans retinoic acid (RA, Sigma, R2625) 24 h after seeding. The cells were incubated in 100% humidity at 37 °C in air with 5% CO2.
To measure acute changes in the average [Ca^2+]i of a population, SH-SY5Y cells were examined in the 96-well plate fluorescence reader FlexStation II (Molecular Devices) using the fluorophore Fura-2AM. SH-SY5Y (35,000 cells/well; 109,375 cells/cm^2) were seeded in maintenance culture medium in black 96-well plates with clear bottom (Corning, #3603). 24 h after seeding, maintenance medium was replaced with differentiation medium. After 72 h of differentiation, Fura-2AM dissolved in DMSO and diluted in KRH buffer (125 mM NaCl, 5 mM KCl, 1.2 mM MgSO4, 1.2 mM KH2PO4, 2.0 mM CaCl2, 6.0 mM D-glucose, and 25 mM HEPES (free acid), pH adjusted to 7.4 by 1.0 M NaOH) were added to the medium to a final concentration of 4 µM (Gustafsson et al. [2010]). The plates were incubated for 30 min at 37 °C before cells were washed once with 200 µl KRH buffer. 90 µl of KRH buffer without or with 10 µM PNU-120596 (PNU) and/or 125 µM mecamylamine (Mec) and/or test chemicals in different concentrations for antagonist experiments were added to the Fura-2AM-loaded cells. The plate was again incubated for 20 min to allow full hydrolysis of the AM group before the experiment. The fluorescence was assessed at 37 °C in the fluorescence plate reader (FlexStation II; Molecular Devices) at two different excitation wavelengths, 340 nm for Ca^2+-bound Fura-2 and 380 nm for free Fura-2, and at 510 nm emission, every 3.1 s using bottom read settings. After 26–29 s of initial baseline recording of the fluorescence intensity, 10 µl of the compound dilution (10 times higher than the final concentration to the cells) was transferred automatically by the FlexStation II (“Flex mode”) to the cell plate wells (five wells per concentration) and the fluorescence intensity was monitored for another 150 s. The ratio of fluorescence intensity at 340/380 nm was determined and the mean values from the baseline recording before the addition of test compounds was set to zero. The acute change in the Ca^2+ influx after the addition of the compounds was quantified as the area under the curve (AUC) using the SoftMax Pro 4.8 software (Molecular Devices). All test compounds were dissolved in DMSO. Compounds were diluted in KRH buffer in 1:3 series, with 100 µM as the highest concentration. As a negative control, 0.1% DMSO in KRH buffer was used.

The test system of experiment [2] is nAChRs on SH-SY5Y cells. Put plainly: Desensitization of the nicotine response of SH-SY5Y cells. Particulars: pretreatment 20 min, nicotine 10 µM, PNU 10 µM. As for the experimental part:
To measure acute changes in the average [Ca^2+]i of a population, SH-SY5Y cells were examined in the 96-well plate fluorescence reader FlexStation II (Molecular Devices) using the fluorophore Fura-2AM. SH-SY5Y (35,000 cells/well; 109,375 cells/cm^2) were seeded in maintenance culture medium in black 96-well plates with clear bottom (Corning, #3603). 24 h after seeding, maintenance medium was replaced with differentiation medium. […] The fluorescence was assessed at 37 °C in the fluorescence plate reader (FlexStation II; Molecular Devices) at two different excitation wavelengths, 340 nm for Ca^2+-bound Fura-2 and 380 nm for free Fura-2, and at 510 nm emission, every 3.1 s using bottom read settings. After 26–29 s of initial baseline recording of the fluorescence intensity, 10 µl of the compound dilution (10 times higher than the final concentration to the cells) was transferred automatically by the FlexStation II (“Flex mode”) to the cell plate wells (five wells per concentration) and the fluorescence intensity was monitored for another 150 s. The ratio of fluorescence intensity at 340/380 nm was determined and the mean values from the baseline recording before the addition of test compounds was set to zero. The acute change in the Ca^2+ influx after the addition of the compounds was quantified as the area under the curve (AUC) using the SoftMax Pro 4.8 software (Molecular Devices). […]

Another experiment has as its system nAChRs on LUHMES neurons. In words: Desensitization of nAChR agonist-evoked [Ca2+]i responses of LUHMES neurons. As for the experimental part: Ca^2+-imaging was performed using HT Functional Drug Screening System FDSS/µCELL (Hamamatsu Photonics) at nominal 37 °C. The FDSS/µCell system enables the indirect recording of changes of [Ca^2+]i via a Ca^2+-sensitive fluorescent dye. The fluorescence signal of a complete 384-well plate is acquired at once with a high-speed and high-sensitivity digital ImagEM X2 EM-CCD camera (Electron Multiplying Charge-Coupled Device, Hamamatsu Photonics), but with limited spatial resolution. Therefore, the software only determines the mean fluorescence signal of each well rather than of individual cells. For compound application, the integrated dispenser head with 384 pipette tips was used, which can add the test compound to all wells simultaneously. Cells were preincubated with Cal-520 AM (AAT Bioquest) at a concentration of 1 µM for 1 h at 37 °C. For recording, the medium was exchanged by a buffer solution containing [mM]: 135 NaCl, 5 KCl, 0.2 MgCl2, 2.5 CaCl2, 10 HEPES, and 10 D-glucose, pH 7.4. Test compound application was executed after obtaining a 1.5 min baseline recording. Where applicable, a second application was executed 4.5 min after the first application. The total recording never exceeded 8 min.
For the high-throughput Ca^2+-imaging data obtained in LUHMES cells, an offset correction using the FDSS software (version 3.2) was performed. Afterward, the data were exported and further analyzed with scripts written in R (version 3.6.3) (R Core Team [2020]). The concentration–response curves were fitted using a log-logistic model described by Ritz et al. ([2015]), utilizing the R package drc with its function drm() and LL2.2() with the following equation: f(x) = d/[1 + exp(b(log(x) − ẽ))] (Ritz et al. [2015]). The logarithm of the half-maximal effective concentration (logEC50) between 0 and the upper limit (d), which was set to 1, is represented by ẽ, x denotes the concentration, and b stands for the slope parameter (Ritz et al. [2015]). In cases with normalizations to responses induced by other compounds, the function LL2.3() was used with a variable upper limit (d; Ritz et al. [2015]). The same equation was used to determine the half-maximal inhibitory concentration (logIC50). Then the logEC50 and logIC50 values were converted into the pIC50 and pEC50 values, which are the negative logarithms to base 10.
Fig. 4 Desensitizing effects of DN-IMI and IMI-olefin on nAChRs. LUHMES neurons differentiated in 384-well plates were pretreated with various concentrations of DN-IMI or IMI-olefin for 4.5 min before different nAChR agonists were applied and [Ca^2+]i signals were recorded. […] Note the treatment scheme (upper right corner), illustrating the experimental design. […] Note the treatment scheme (upper right corner), illustrating the experimental design. Detailed data on n numbers are found in Table S6

Turning to `NC1=NCCN1Cc1ccc(Cl)nc1` [DN-IMI, desnitro-imidacloprid], the “response without PNU as % of the maximal response obtained in the presence of PNU” value in the experiment on nAChRs on SH-SY5Y cells [1] (absence of PNU) is on record as “about 44%”. In addition, the estimated maximum with nAChRs on SH-SY5Y cells [1] (absence of PNU, normalized to 10 µM nicotine) is on record as ~ 0.44; in the experiment on nAChRs on SH-SY5Y cells [1] (presence of PNU, normalized to 10 µM nicotine), ~ 0.93. Moreover, in the experiment with nAChRs on SH-SY5Y cells [1] (absence of PNU, normalized to 10 µM nicotine, fit for < 10 µM), the “relative pEC50 (AUC of fluorescence)” value is reported as 6.8 ± 0.36. In addition, the “concentration of peak response” value in the experiment with nAChRs on SH-SY5Y cells [1] (presence of PNU, declining responses at higher concentrations) is ~ 3 µM. Also, in the experiment with nAChRs on SH-SY5Y cells [2], the “effect of pretreatment on the response to nicotine in SH-SY5Y” value is reported as “reduced/abolished the response to nicotine in the submicromolar range”. For the same compound, the “concentrations inhibiting subsequent activation of nAChRs (desensitization)” value in the experiment on nAChRs on LUHMES neurons (BMR10, LUHMES) is reported as at least 10 nM. Further, the “times more potent than IMI (desensitization)” value in the experiment on nAChRs on LUHMES neurons (compared to effects of IMI in Loser et al. [2021a]) was ~ 70 times. Besides, the “BMC for receptor desensitization” value in the experiment on nAChRs on LUHMES neurons (for a 20% effect) is listed as ~ 17 nM. In addition, the “pIC50 for desensitization of the nicotine-evoked response” value with nAChRs on LUHMES neurons (pretreatment […], 3 µM nicotine) worked out at 6.9.
